Measured values reported in patent US8338422B2, “Indolin-2-ones and aza-indolin-2-ones” (Janssen Pharmaceutica NV, priority 2007, dated 2012).

Key:
HCT-116 = assay: Cellular proliferation assay (Alamar blue), HCT-116; assay type: cell-based; conditions: Homo sapiens, HCT-116, 72 h, HCT-116 cells, 72 hours with compound, 10% FCS, read-out: pIC50 HCT-116 (converted)
In short: (§1)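 Proliferation was assessed over 72 h of compound treatment, following 24 h of seeding without compound, under 10% FCS, 37° C. and 5% CO2. Fluorescent resazurin product was measured and compared with control cells.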

H1299 = assay: Cellular proliferation assay (Alamar blue), H1299; assay type: cell-based; conditions: Homo sapiens, NCI-H1299, 72 h, H1299 cells, 72 hours with compound, 10% FCS, read-out: pIC50 H1299 (converted)
In short: as §1

SK-N-SH = assay: Cellular proliferation assay (Alamar blue), SK-N-SH; assay type: cell-based; conditions: Homo sapiens, SK-N-SH cells, 72 hours with compound, 10% FCS, read-out: pIC50 SK-N-SH (converted)
Method: (§2) […] functional properties of these compounds was tested in cellular proliferation assays on a panel of different cell lines in the presence of 10% FCS serum (37° C. and 5% (v/v) CO2). In a first step these cells were seeded and incubated for 24 hours in the absence of compound. In the second step the cells were incubated for 72 hours with the compounds to be tested for 72 hours. The viable cell number was finally assessed in a standard Alamar blue cell viability assay.
(§3) The viable cell number was assessed by incubation for either 4 h (HCT-116, H1299, H460) 6 h (SKOV3, HT29, U87-MG, Colo205) or 24 h (A2780, PC3, MDA-MB-231, A549, MCF-7) with Alamar blue (Resazurin 9 μg/ml, K-Ferrocyanide 90 μM K-Ferricyanide 90 μM) and the converted fluorescent product was quantified on a fluorescent plate readed (544 nm/590 nm). Effect of the compounds is calculated as of on control cells.

PC-3 = assay: Cellular proliferation assay (Alamar blue), PC-3; assay type: cell-based; conditions: Homo sapiens, PC-3, 72 h, PC-3 cells, 72 hours with compound, 10% FCS, read-out: pIC50 PC-3 (converted)
In short: as §1

A431 = assay: Cellular proliferation assay (Alamar blue), A431; assay type: cell-based; conditions: Homo sapiens, A-431, A431 cells, 72 hours with compound, 10% FCS, read-out: pIC50 A431 (converted)
Method: as §2, §3

Colo205 = assay: Cellular proliferation assay (Alamar blue), Colo205; assay type: cell-based; conditions: Homo sapiens, COLO 205, Colo205 cells, 72 hours with compound, 10% FCS, read-out: pIC50 Colo205 (converted)
Method: as §2, §3

AuroraB (h) = AuroraB (h) (Homo sapiens, UniProt Q96GD4); assay: Aurora-B human kinase assay (SPA); assay type: biochemical; conditions: read-out: AuroraB pIC50 (converted)
In short: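 Scintillation proximity assay: AuroraB (h) at 0.5 μg/ml with 3 μM biotinylated peptide, 0.5 μM ATP and 2.2 nM [γ-33P]ATP in 60 mM Hepes pH 7.5, 3 mM MgCl2, 3 mM MnCl2, 2 mM DTT. 60 min at room temperature, EDTA stop, streptavidin PVT beads read on Leadseeker.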

PLK4 (h) = PLK4 (h) (Homo sapiens, UniProt O00444); assay: PLK-4 human kinase assay (SPA); assay type: biochemical; conditions: read-out: PLK4 pIC50 (converted)
In short: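 Radiometric readout: 33P-labelled peptide captured on streptavidin SPA beads after EDTA stop, imaged by Leadseeker. Reaction ran 60 min at room temperature in Hepes pH 8.0 buffer. It contained 1 μM ATP with 2 nM [γ-33P]ATP, 10 μM biotinylated peptide and PLK4 (h) at 19 μg/ml.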

HT-29 = assay: Cellular proliferation assay (Alamar blue), HT-29; assay type: cell-based; conditions: Homo sapiens, HT-29 cells, 72 hours with compound, 10% FCS, read-out: pIC50 HT-29 (converted)
Method: as §2, §3

H460 = assay: Cellular proliferation assay (Alamar blue), H460; assay type: cell-based; conditions: Homo sapiens, NCI-H460, H460 cells, 72 hours with compound, 10% FCS, read-out: pIC50 H460 (converted)
Method: as §2, §3

DU-145 = assay: Cellular proliferation assay (Alamar blue), DU-145; assay type: cell-based; conditions: Homo sapiens, DU-145 cells, 72 hours with compound, 10% FCS, read-out: pIC50 DU-145 (converted)
Method: as §2, §3

MDA/MB231 = assay: Cellular proliferation assay (Alamar blue), MDA/MB231; assay type: cell-based; conditions: Homo sapiens, MDA-MB-231, 72 h, MDA/MB231 cells, 72 hours with compound, 10% FCS, read-out: pIC50 MDA/MB231 (converted)
In short: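 Alamar blue fluorescence (544/590 nm) read-out of viable cell number after 72 h compound exposure, expressed versus control cells. Medium 10% FCS, 37° C., 5% CO2; 24 h pre-seeding without compound. Dye contact time: 24 h for MDA-MB-231, 4 h for H460.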

SKOV3 = assay: Cellular proliferation assay (Alamar blue), SKOV3; assay type: cell-based; conditions: Homo sapiens, SK-OV-3, SKOV3 cells, 72 hours with compound, 10% FCS, read-out: pIC50 SKOV3 (converted)
Method: as §2, §3

A549 = assay: Cellular proliferation assay (Alamar blue), A549; assay type: cell-based; conditions: Homo sapiens, A549 cells, 72 hours with compound, 10% FCS, read-out: pIC50 A549 (converted)
Method: as §2, §3

MCF-7 = assay: Cellular proliferation assay (Alamar blue), MCF-7; assay type: cell-based; conditions: Homo sapiens, MCF7, MCF-7 cells, 72 hours with compound, 10% FCS, read-out: pIC50 MCF-7 (converted)
Method: as §2, §3

GSK3β (h) = GSK3β (h) (Homo sapiens, UniProt P49841); assay: GSK-3β human kinase assay (SPA); assay type: biochemical; conditions: read-out: GSK3B pIC50 (converted)
In short: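 Radiometric SPA read-out: after EDTA stop, biotinylated 33P-labelled peptide bound streptavidin PVT beads and was imaged on Leadseeker. Reaction: 60 min, room temperature, GSK3β (h) at 1 μg/ml, 1 μM substrate peptide, 1 μM ATP with 2 nM [γ-33P]ATP, Tris pH 7.4/MgCl2/DTT buffer.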

CDK1/CyclinB (h) = CDK1/CyclinB (h) (Homo sapiens, UniProt P06493); assay: CDK1/CyclinB human kinase assay (FRET); assay type: biochemical; conditions: read-out: CDK1 pIC50 (converted)
In short: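 Z'-LYTE FRET format: 0.2 μg/ml enzyme with 2 μM Ser/Thr peptide 12 and 10 μM ATP in 50 mM Hepes pH 7.5, 10 mM MgCl2, 1 mM EGTA, 0.01% Brij-35, 60 min at room temperature. Protease development 60 min; coumarin/fluorescein emission ratio (460/538 nm, excitation 390 nm) reports phosphorylation.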

Sequence of PLK4 (h) (O00444 whole entry): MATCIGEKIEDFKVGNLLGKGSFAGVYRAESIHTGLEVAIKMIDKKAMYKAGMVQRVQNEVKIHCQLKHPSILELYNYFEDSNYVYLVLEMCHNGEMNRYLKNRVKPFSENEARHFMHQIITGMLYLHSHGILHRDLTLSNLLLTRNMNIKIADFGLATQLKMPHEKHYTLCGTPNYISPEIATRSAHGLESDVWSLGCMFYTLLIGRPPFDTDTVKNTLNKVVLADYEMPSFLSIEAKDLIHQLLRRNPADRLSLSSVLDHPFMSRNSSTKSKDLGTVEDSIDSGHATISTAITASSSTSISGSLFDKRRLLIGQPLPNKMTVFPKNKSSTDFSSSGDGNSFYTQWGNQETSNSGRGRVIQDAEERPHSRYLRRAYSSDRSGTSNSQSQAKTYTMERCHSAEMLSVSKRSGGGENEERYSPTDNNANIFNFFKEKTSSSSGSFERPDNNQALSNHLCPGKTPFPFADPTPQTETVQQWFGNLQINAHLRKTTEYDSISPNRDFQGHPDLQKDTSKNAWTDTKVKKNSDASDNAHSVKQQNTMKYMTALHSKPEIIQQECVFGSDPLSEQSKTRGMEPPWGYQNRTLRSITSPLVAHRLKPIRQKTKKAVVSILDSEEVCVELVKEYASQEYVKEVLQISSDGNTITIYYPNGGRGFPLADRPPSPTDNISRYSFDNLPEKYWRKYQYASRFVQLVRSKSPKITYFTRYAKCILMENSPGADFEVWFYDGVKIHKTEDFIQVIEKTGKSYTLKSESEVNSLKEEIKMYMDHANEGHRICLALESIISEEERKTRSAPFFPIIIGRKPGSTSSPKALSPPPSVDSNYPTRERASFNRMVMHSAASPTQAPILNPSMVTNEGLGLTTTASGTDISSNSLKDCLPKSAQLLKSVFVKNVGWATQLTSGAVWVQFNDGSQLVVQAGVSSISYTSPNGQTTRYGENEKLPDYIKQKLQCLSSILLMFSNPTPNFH
Sequence of AuroraB (h) (Q96GD4 whole entry): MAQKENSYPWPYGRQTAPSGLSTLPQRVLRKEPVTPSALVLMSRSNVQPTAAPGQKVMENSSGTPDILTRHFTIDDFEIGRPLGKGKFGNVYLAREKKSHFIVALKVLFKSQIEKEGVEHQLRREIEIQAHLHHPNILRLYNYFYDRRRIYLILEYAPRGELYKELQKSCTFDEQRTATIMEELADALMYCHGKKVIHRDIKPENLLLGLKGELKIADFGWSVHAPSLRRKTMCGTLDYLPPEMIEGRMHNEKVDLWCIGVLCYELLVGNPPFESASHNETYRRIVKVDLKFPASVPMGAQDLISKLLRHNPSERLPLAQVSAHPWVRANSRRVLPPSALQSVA
Sequence of GSK3β (h) (P49841 whole entry): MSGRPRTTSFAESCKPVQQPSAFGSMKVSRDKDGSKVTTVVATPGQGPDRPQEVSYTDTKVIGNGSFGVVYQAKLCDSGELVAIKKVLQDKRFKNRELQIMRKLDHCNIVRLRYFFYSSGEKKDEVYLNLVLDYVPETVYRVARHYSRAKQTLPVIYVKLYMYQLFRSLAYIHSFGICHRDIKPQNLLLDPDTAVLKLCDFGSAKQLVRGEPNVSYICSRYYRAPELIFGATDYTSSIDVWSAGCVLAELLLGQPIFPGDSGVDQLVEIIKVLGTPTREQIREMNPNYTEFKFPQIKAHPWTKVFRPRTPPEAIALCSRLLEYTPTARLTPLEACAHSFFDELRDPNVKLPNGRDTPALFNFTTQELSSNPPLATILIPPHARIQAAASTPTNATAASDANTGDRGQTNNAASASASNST
Sequence of CDK1/CyclinB (h) (P06493 whole entry): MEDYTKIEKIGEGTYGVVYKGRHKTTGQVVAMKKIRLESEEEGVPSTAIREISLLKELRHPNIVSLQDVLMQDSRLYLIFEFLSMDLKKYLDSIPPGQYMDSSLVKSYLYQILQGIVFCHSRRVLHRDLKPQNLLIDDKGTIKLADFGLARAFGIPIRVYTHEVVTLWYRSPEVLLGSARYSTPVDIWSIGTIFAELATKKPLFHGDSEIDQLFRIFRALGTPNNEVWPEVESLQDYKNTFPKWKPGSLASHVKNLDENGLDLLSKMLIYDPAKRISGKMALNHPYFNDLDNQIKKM
Sequence of CDK1/CyclinB (h) (P14635 whole entry partner): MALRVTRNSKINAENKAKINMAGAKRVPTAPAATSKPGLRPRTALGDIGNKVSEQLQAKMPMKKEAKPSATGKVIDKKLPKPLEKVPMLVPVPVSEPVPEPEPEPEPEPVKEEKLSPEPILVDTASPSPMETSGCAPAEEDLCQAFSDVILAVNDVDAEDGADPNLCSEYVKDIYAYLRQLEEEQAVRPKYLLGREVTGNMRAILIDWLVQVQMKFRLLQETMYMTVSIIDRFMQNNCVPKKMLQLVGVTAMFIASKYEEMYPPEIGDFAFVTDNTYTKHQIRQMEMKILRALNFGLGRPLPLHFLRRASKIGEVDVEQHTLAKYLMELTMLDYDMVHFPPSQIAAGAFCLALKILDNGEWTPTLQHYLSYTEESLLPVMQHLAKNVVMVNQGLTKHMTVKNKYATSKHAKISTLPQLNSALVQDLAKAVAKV

IC50 (HCT-116) [µM]	IC50 (H1299) [µM]	IC50 (SK-N-SH) [µM]	IC50 (PC-3) [µM]	IC50 (A431) [µM]	IC50 (Colo205) [µM]	IC50 (AuroraB (h)) [µM]	IC50 (PLK4 (h)) [µM]	IC50 (HT-29) [µM]	IC50 (H460) [µM]	IC50 (DU-145) [µM]	IC50 (SKOV3) [µM]	IC50 (A549) [µM]	IC50 (MCF-7) [µM]	melting point [°C]	IC50 (GSK3β (h)) [µM]	IC50 (CDK1/CyclinB (h)) [µM]	SMILES	IC50 (MDA/MB231) [µM]
> 10	> 10	> 10	> 10	> 10	> 10	> 10	> 10	> 10	> 10	> 10	> 10	> 10	> 10				O=C1Nc2ncnc3c2/C1=C/Nc1ccc(c(F)c1)OCCCCCC(=O)N1CCN3CC1 [Compound 22]	> 10
						> 10	3.16							> 240	1.86	> 10	CN1CCCC(=O)NCC#Cc2cccc3c2/C(=C/Nc2cccc(c2)S(=O)(=O)N(C)CC1=O)C(=O)N3 [Compound 3]	
						8.32	4.17							> 240	8.13	> 10	CN1CC(=O)N(CCN2CCOCC2)CCC(=O)NCC#Cc2cccc3c2/C(=C/Nc2cccc(c2)S1(=O)=O)C(=O)N3 [Compound 5]	
